Laboratory results: patent US20110093959A1, “CRYPTOTIS PARVA SCREENING MODEL FOR ANTIEMETIC POTENTIAL” (priority 2008, published 2011)
Several values for one entry are separate records, joined by “and”; a condition that tells them apart may be missing. Equal values may be shown once.

Experiments:
Least Shrew = experiment: CIS dose-response emesis, abdominal contractions and feeding, 47-hour observation; assay type: in vivo, Cryptotis parva; conditions: for total frequency of emesis vs vehicle control: immediate and delayed phases
Source text: During the dark night phase a red light bulb was used to illuminate the shrew cage.
To habituate the shrews to the test environment, each animal was randomly selected and transferred to a 14×17×12 cm clean opaque plastic cage and was offered ten mealworms 1 hr prior to experimentation. […] Immediately following injection, each shrew was returned to its cage and their behaviors were videotaped for the next 47 hr. Animals were allowed ad libitum access to food (mealworms) and water. Food supply was maintained by making sure that two meal worms were always available in the cage throughout the observation time. Water was available throughout the experiment via small plastic container (1 cm in diameter and 0.5 cm in height) glued to the floor of each cage. The mean frequencies (±SEM) of vomitings (wet, dry and total) and abdominal contractions per hour and the number of mealworms eaten per hour, were scored separately from videotape recordings for each individual shrew for the entire observation period by a trained observer blind to the experimental conditions.
(§1) When a significant dose and exposure interaction was found, then simple effects at a particular emesis phase was tested via a one-way ANOVA. Neurochemical data were initially analyzed by two-way analysis of variance (ANOVA) with drug dose (0 mg/kg and 10 mg/kg) and exposure time (2 hr and 33 hr) as factors. […] For each statistical test, a P value of<0.05 was necessary to achieve statistical significance.

[1] = system: 5-HT, 5-HIAA, dopamine and HVA tissue levels; experiment: Monoamine and metabolite tissue levels after CIS (HPLC-ECD); assay type: in vivo, Cryptotis parva; conditions: for increase in brainstem 5-HT tissue level vs vehicle: CIS 10 mg/kg i.p.; for frontal cortex 5-HIAA level: not significantly different from vehicle
Description: These parameters were used in our neurochemical studies. Prior to experimentation, shrews were habituated to the laboratory environment as described for the behavioral studies. […] Subgroups of each treatment were sacrificed by rapid decapitation at either 2 hr or 33 hr post-injection.
Brains were rapidly removed and dissected on an ice-cold petri dish, the frontal cortex and brainstem were immediately frozen on dry-ice and stored at […] until analysis. Likewise, each gut was rapidly removed and washed with ice-cold saline three times prior to sectioning into succeeding 2 cm portions starting from the end of the stomach (duodenal and jejunal sections, respectively), followed by rapid freezing as described above. Each frontal cortex, brainstem and intestinal sample was respectively homogenized (tissue tearer, setting 5 sec for 15 sec) in 1 ml, 2 ml, or 3 ml ice-cold 0.2 M perchloric acid respectively containing 0.3 M ethylenediamine-tetraacetic acid disodium (EDTA). A 0.1 ml portion of each homogenate was removed for protein analysis. The protein concentration was determined by the use of BCA protein assay kit (Pierce; Rockford, Ill.). Then, homogenates were centrifuged at 40,000 g for 30 min at 4° C. to precipitate protein. The supernatant was filtered through a 0.2 μm nylon filter in a microcentrifuge tube at 1,500 g for 10 min at 4° C. A 10 μl aliquot of each filtered supernatant was assayed for the presence of monoamines and their metabolites.
Monoamines and their metabolites were analyzed by high performance liquid chromatography with electrochemical detection (HPLC-ECD) based upon our established method (Darmani et al., 2003). Separation of 5-HT, dopamine and their corresponding metabolites (5-HIAA and HVA) from other electroactive compounds was achieved on a 10 cm×3.2 mm RP-C18 column (ODS 3 um packing; BAS Inc., W. Lafayette, Ind.) and a mobile phase containing 0.15 M chloroacetic acid, 0.12 M sodium hydroxide, 0.18 mM ethylenediamine-tetraacetic acid disodium (EDTA), 1.1 mM sodium octane sulfonic acid and 5% acetonitrile. The monoamines and their metabolites were separated and measured through the cited column via a Shumadzu L-ECD-6A detector, connected to a Shimadzu LC-10 AD pump and a C-R7Ae chromatopac integrator (Kyoto, Japan). The glassy carbon working electrode was set at a potential of 650 mV relative to an Ag/AgCl reference electrode. The detection limit for dopamine and 5-HT were 2 and 5 pg respectively, based on a signal to noise ratio of 3:1. Peak heights of unknowns were compared to the mean peak heights of a 200 pg standard solution (containing 5-HT, dopamine, 5-HIAA and HVA) which were run daily after every fifth tissue supernatant sample. The intestinal HVA concentrations could not be determined due to an unknown interfering peak in the gut tissue eluates.
as §1

[2] = CIS 10 mg/kg, i.p., post exposure
[3] = CIS 0 and 10 mg/kg, 2 and 33 hour

N.N.[Cl][Pt][Cl] [CIS, cis-platinum(II)diamine dichloride]
peak immediate phase of emesis (Least Shrew; CIS 5 mg/kg, i.p.): third hour
mealworms eaten vs control (Least Shrew; CIS 5 mg/kg, first night): ate significantly more
time of maximal mean frequency of emesis, delayed phase (Least Shrew; [2]): 33 h
time of maximal mean frequency of emesis, immediate phase (Least Shrew; [2]): 2 h and 2 to 3 h
mealworms eaten vs control (Least Shrew; CIS 10 mg/kg, day 1): ate significantly more
mealworms eaten vs control (Least Shrew; CIS 10 mg/kg, day 2): ate significantly less
frequency of abdominal contractions vs vehicle (Least Shrew; CIS 10 mg/kg, delayed phase): greater frequencies
frequency of dry emesis vs vehicle control (Least Shrew; CIS 10 mg/kg, delayed phase): greater frequencies
total frequency of emesis vs vehicle control (Least Shrew; CIS 10 mg/kg): significantly different
frequency of wet emesis vs control (Least Shrew; CIS 10 mg/kg, immediate phase): significantly greater frequencies
time from which animals expired (Least Shrew; CIS 20 mg/kg, i.p., post-CIS exposure): ≥ 30 h
mealworms eaten vs control (Least Shrew; CIS 20 mg/kg, day 1): ate less
mealworms eaten vs control (Least Shrew; CIS 20 mg/kg, day 2): ate significantly less
frequency of abdominal contractions vs vehicle (Least Shrew; CIS 20 mg/kg, delayed phase): greater frequencies
mealworms eaten vs control (Least Shrew; CIS 20 mg/kg, first night): ate significantly less
total frequency of emesis vs vehicle control (Least Shrew; CIS 20 mg/kg): significantly different
frequency of dry vomiting vs vehicle control (Least Shrew; CIS 20 mg/kg, immediate phase): significantly greater frequencies
frequency of wet emesis vs control (Least Shrew; CIS 20 mg/kg, immediate phase): significantly greater frequencies
mean frequency of abdominal contractions vs vehicle (Least Shrew; CIS 20 mg/kg, immediate phase): significantly greater
wet vomiting, dose effect (Least Shrew; CIS 5-20 mg/kg, delayed phase): no significant dose effect
brainstem dopamine levels [1, 3]: no overall significant effect
duodenum dopamine levels [1, 3]: no overall significant effect
frontal cortex serotonin levels [1, 3]: no significant overall effect
duodenal tissue concentration of 5-HIAA ([1]; CIS 10 mg/kg): not significantly altered
increase in jejunal dopamine concentration ([1]; CIS 10 mg/kg at 33 hour vs 0 mg/kg control at 2 hour): 121%
increase in jejunal dopamine concentration ([1]; CIS 10 mg/kg at 33 hour vs 0 mg/kg control at 33 hour): 171%
frontal cortex HVA at 33 hour less than at 2 hour ([1]; CIS 10 mg/kg dose): 32.4%
jejunal 5-HT at 2 hour smaller than at 33 hours ([1]; CIS 10 mg/kg dose): 114.5%
brainstem 5-HT level at 33 hour greater than at 2 hour ([1]; CIS 10 mg/kg group): 33.9%
brainstem HVA at 33 hour greater than at 2 hour ([1]; CIS 10 mg/kg group): 37%
increase in brainstem 5-HT tissue level vs vehicle ([1]; 2 hour): 68.2%
increase in brainstem 5-HT tissue level vs vehicle ([1]; 33 hour): 25%
duodenal 5-HT concentrations ([1]; CIS 10 mg/kg, 2 and 33 hour): not significantly altered
frontal cortex dopamine tissue level vs control ([1]; CIS 10 mg/kg, 2 hour): significant increase
increase in brainstem 5-HIAA level vs vehicle ([1]; CIS 10 mg/kg, 2 hour): 43.8%
increase in brainstem HVA levels vs control ([1]; CIS 10 mg/kg, 2 hour): 65.5%
increase in jejunal 5-HIAA concentration vs control ([1]; CIS 10 mg/kg, 2 hour): 32.4%
reduction of jejunal 5-HT tissue concentration vs control ([1]; CIS 10 mg/kg, 2 hour): 49.1%
frontal cortex 5-HIAA level ([1]; CIS 10 mg/kg, 2 hour): 1.1±0.07
decrease in frontal cortex HVA concentration vs vehicle ([1]; CIS 10 mg/kg, 33 hour): 35.9%
increase in brainstem 5-HIAA level vs vehicle ([1]; CIS 10 mg/kg, 33 hour): 26.7%
increase of jejunal 5-HT tissue concentration vs control ([1]; CIS 10 mg/kg, 33 hour): ~50% and 41.8%
frontal cortex 5-HIAA level ([1]; CIS 10 mg/kg, 33 hour): 0.91±0.11
increase in brainstem HVA levels vs control ([1]; CIS 10 mg/kg, 33 hours): 27.7%
duodenal 5-HT at 33 hours greater than at 2 hour ([1]; CIS-treated animals): 48.5%
brainstem 5-HIAA at 33 hour greater than at 2 hour ([1]; CIS-treated group): 49.2%
